Laboratory results as given in patent US20260274829A1, “NEW E3 UBIQUITIN LIGASE LIGAND, PROTEIN DEGRADATION AGENT AND USE THEREOF” (GLUETACS THERAPEUTICS (SHANGHAI) CO., LTD., priority 2023, published 2026).

How the values were obtained:
Assay type in all cases: cell-based
IKZF3 = target: T1, IKZF3 (Homo sapiens, UniProt Q96SW2+Q9UKT9); test: Western blot degradation of IKZF3 in hPBMC
T1 construct: endogenous in cells; host or cells: hPBMC
Summary of the method: (§1)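 hPBMC treated with degraders, lysates run on SDS-PAGE and Western blotted; band grayscale measured against DMSO controls. DC50 from fitted concentration-response curve at half control intensity. Remaining target protein (%) = target band normalized to internal control band, relative to untreated.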

GSPT1 = target: T2, GSPT1 (Homo sapiens, UniProt P15170+Q96SW2); test: Western blot degradation of GSPT1 in hPBMC
T2 construct: endogenous in cells; host or cells: hPBMC
Summary of the method: as §1

CK1a = target: T3, CK1a (Homo sapiens, UniProt P48729+Q96SW2); test: Western blot degradation of CK1a in hPBMC
T3 construct: endogenous in cells; host or cells: hPBMC
T3 sequence (P48729 whole entry): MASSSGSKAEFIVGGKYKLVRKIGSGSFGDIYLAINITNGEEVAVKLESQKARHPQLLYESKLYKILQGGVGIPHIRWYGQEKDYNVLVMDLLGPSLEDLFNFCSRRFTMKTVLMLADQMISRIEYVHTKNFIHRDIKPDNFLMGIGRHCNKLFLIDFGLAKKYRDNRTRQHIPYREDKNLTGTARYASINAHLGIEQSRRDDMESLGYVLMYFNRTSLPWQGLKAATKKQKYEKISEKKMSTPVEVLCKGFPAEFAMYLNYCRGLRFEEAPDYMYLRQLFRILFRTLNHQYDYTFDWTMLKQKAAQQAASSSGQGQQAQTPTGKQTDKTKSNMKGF
T3 sequence (Q96SW2 whole entry): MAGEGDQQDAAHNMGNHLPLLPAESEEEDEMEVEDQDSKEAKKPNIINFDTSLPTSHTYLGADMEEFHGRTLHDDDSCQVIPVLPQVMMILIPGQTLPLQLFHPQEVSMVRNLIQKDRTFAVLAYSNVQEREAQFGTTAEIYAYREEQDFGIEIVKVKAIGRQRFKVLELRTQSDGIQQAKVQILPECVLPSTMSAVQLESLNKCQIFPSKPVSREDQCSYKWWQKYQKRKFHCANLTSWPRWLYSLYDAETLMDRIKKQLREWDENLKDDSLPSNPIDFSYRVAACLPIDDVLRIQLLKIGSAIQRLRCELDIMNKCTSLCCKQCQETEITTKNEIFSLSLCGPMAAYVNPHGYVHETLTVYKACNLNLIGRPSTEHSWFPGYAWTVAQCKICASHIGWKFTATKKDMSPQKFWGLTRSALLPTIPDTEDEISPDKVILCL
T3 sequence (Q16531 whole entry partner): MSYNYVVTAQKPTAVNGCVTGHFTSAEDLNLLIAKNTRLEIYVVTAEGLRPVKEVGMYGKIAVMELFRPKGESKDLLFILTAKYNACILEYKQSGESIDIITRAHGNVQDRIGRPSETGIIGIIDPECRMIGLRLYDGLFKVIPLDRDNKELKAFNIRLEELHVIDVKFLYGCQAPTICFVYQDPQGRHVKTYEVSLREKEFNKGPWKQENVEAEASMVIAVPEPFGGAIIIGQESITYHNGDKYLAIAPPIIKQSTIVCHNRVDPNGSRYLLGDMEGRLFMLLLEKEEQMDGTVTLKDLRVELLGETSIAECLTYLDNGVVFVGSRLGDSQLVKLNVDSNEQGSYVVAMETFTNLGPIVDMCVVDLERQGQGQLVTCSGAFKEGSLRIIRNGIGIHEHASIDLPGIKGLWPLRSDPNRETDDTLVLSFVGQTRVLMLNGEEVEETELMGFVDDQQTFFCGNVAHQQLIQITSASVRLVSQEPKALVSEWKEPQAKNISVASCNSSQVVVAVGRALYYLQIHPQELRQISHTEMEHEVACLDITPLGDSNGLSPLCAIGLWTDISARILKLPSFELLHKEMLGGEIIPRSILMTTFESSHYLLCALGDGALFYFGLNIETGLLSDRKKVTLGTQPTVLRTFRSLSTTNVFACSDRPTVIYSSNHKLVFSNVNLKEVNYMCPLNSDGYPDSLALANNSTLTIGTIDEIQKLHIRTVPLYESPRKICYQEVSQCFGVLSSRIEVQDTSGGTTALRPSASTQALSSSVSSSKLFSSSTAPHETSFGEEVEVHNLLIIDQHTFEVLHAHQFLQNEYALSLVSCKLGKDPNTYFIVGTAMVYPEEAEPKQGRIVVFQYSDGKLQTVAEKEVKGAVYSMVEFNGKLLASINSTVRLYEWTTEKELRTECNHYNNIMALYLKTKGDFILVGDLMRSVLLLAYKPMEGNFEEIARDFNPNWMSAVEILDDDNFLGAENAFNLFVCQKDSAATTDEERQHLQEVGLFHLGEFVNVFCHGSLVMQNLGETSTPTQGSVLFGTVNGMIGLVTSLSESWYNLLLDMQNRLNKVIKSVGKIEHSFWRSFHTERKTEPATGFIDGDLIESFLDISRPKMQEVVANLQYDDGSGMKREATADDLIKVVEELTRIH
Summary of the method: as §1

IKZF1 = target: T4, IKZF1 (Homo sapiens, UniProt Q13422+Q96SW2); test: Western blot degradation of IKZF1 in hPBMC
T4 construct: endogenous in cells; host or cells: hPBMC
T4 sequence (Q13422 whole entry): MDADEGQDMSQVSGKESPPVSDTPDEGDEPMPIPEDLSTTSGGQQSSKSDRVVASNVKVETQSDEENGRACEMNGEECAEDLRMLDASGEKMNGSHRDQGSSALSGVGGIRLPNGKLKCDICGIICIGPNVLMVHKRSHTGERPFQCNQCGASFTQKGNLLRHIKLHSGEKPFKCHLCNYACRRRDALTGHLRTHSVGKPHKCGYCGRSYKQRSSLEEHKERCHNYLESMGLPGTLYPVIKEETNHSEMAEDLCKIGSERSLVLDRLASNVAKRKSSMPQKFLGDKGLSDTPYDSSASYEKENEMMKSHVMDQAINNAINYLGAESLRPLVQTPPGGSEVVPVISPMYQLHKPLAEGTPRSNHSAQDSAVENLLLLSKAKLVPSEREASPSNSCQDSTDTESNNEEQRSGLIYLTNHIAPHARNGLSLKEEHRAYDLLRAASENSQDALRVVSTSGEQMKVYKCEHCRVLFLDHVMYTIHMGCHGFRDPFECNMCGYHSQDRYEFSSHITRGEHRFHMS
T4 sequence (Q96SW2 whole entry): as the sequence (Q96SW2 whole entry) above
T4 sequence (Q16531 whole entry partner): as the sequence (Q16531 whole entry partner) above
Summary of the method: as §1

WEE1 = target: T5, WEE1 (Homo sapiens, UniProt P30291+Q96SW2); test: Western blot degradation of WEE1 in hPBMC
T5 construct: endogenous in cells; host or cells: hPBMC
T5 sequence (P30291 whole entry): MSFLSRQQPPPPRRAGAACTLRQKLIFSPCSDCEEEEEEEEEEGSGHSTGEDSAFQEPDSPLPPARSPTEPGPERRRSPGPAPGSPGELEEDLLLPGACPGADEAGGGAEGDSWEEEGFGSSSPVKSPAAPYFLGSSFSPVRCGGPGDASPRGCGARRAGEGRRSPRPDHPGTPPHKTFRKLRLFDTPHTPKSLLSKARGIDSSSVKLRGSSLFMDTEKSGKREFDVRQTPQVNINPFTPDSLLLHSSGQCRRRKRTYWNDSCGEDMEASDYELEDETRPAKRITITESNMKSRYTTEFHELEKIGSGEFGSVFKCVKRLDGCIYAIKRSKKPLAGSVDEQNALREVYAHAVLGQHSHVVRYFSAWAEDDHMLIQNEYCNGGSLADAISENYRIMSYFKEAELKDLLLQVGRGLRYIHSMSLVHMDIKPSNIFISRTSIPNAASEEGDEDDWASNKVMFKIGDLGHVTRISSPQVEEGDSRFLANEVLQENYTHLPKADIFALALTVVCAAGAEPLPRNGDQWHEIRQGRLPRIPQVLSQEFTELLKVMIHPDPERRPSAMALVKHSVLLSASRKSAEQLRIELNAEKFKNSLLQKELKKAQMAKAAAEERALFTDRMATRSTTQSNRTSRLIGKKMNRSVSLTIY
T5 sequence (Q96SW2 whole entry): as the sequence (Q96SW2 whole entry) above
T5 sequence (Q16531 whole entry partner): as the sequence (Q16531 whole entry partner) above
Summary of the method: as §1

IKZF2 = target: T6, IKZF2 (Homo sapiens, UniProt Q96SW2+Q9UKS7); test: Western blot degradation of IKZF2 in hPBMC
T6 construct: endogenous in cells; host or cells: hPBMC
T6 sequence (Q9UKS7 whole entry): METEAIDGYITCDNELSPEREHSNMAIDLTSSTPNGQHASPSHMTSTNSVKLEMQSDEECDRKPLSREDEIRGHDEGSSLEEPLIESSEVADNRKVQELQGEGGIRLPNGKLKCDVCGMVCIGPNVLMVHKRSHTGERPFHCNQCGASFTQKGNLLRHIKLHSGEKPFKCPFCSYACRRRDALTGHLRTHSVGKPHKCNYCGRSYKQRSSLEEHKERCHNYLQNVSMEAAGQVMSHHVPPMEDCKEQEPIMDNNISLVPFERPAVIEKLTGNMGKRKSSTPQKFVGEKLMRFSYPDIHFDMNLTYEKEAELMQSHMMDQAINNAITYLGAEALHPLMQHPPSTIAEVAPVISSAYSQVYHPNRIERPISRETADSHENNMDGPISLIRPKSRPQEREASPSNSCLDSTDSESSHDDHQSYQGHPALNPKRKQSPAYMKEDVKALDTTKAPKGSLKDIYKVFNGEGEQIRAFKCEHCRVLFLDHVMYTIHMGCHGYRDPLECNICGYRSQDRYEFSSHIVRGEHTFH
T6 sequence (Q96SW2 whole entry): as the sequence (Q96SW2 whole entry) above
T6 sequence (Q16531 whole entry partner): as the sequence (Q16531 whole entry partner) above
Summary of the method: as §1

T1 sequence (Q9UKT9 whole entry): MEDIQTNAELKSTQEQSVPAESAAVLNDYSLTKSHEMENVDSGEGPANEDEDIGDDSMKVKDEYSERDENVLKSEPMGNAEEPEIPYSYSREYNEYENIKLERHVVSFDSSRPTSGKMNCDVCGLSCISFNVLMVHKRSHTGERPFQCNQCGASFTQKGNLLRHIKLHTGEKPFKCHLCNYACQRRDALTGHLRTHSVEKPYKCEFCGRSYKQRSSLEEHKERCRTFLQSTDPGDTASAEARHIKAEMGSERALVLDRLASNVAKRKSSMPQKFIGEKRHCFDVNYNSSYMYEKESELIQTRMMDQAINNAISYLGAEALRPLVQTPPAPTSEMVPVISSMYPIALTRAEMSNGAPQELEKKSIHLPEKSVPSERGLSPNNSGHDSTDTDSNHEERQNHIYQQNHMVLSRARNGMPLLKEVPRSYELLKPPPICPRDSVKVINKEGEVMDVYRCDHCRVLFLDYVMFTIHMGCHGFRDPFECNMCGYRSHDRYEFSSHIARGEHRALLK
T1 sequence (Q96SW2 whole entry): as the sequence (Q96SW2 whole entry) above
T1 sequence (Q16531 whole entry partner): as the sequence (Q16531 whole entry partner) above

Compound	Degradation of substrate protein IKZF3 (substrate protein remaining %) (IKZF3)	Degradation of substrate protein GSPT1 (substrate protein remaining %) (GSPT1)	Degradation of substrate protein CK1a (substrate protein remaining %) (CK1a)	Degradation of substrate protein IKZF1 (substrate protein remaining %) (IKZF1)	Degradation of substrate protein WEE1 (substrate protein remaining %) (WEE1)	Degradation of substrate protein IKZF2 (substrate protein remaining %) (IKZF2)
O=C1CCC(Nc2cc(CO)c(F)cn2)C(=O)N1 (stereo not drawn) [GT-07725, 3-((5-fluoro-4-(hydroxymethyl)pyridin-2-yl)amino)piperidine-2,6-dione]	A (A is defined as 0% ≤ substrate protein remaining % ≤ 80%)	A (A is defined as 0% ≤ substrate protein remaining % ≤ 80%)	B (B is defined as substrate protein remaining % > 80%)	A (A is defined as 0% ≤ substrate protein remaining % ≤ 80%)	A (A is defined as 0% ≤ substrate protein remaining % ≤ 80%)	A (A is defined as 0% ≤ substrate protein remaining % ≤ 80%)
O=C1CCC(Nc2cc(CO)ccn2)C(=O)N1 (stereo not drawn) [GT-07366, 3-((4-(hydroxymethyl)pyridin-2-yl)amino)piperidine-2,6-dione]	B (B is defined as substrate protein remaining % > 80%)	A (A is defined as 0% ≤ substrate protein remaining % ≤ 80%)	A (A is defined as 0% ≤ substrate protein remaining % ≤ 80%)	B (B is defined as substrate protein remaining % > 80%)	B (B is defined as substrate protein remaining % > 80%)	B (B is defined as substrate protein remaining % > 80%)
NCc1cncc(N2CCC(=O)NC2=O)n1 [GT-07801, 1-(6-(aminomethyl)pyrazin-2-yl)dihydropyrimidine-2,4(1H,3H)-dione]	B (B is defined as substrate protein remaining % > 80%)	B (B is defined as substrate protein remaining % > 80%)	A (A is defined as 0% ≤ substrate protein remaining % ≤ 80%)	B (B is defined as substrate protein remaining % > 80%)	B (B is defined as substrate protein remaining % > 80%)	B (B is defined as substrate protein remaining % > 80%)
O=C1CCN(c2cnc(CO)cn2)C(=O)N1 [GT-07634, 1-(5-(hydroxymethyl)pyrazin-2-yl)dihydropyrimidine-2,4(1H,3H)-dione]	A (A is defined as 0% ≤ substrate protein remaining % ≤ 80%)	B (B is defined as substrate protein remaining % > 80%)	A (A is defined as 0% ≤ substrate protein remaining % ≤ 80%)	A (A is defined as 0% ≤ substrate protein remaining % ≤ 80%)	A (A is defined as 0% ≤ substrate protein remaining % ≤ 80%)	A (A is defined as 0% ≤ substrate protein remaining % ≤ 80%)
O=C1CCC(c2ccc(CO)nn2)C(=O)N1 (stereo not drawn) [GT-07636, 3-(6-(hydroxymethyl)pyridazin-3-yl)piperidine-2,6-dione]	A (A is defined as 0% ≤ substrate protein remaining % ≤ 80%)	A (A is defined as 0% ≤ substrate protein remaining % ≤ 80%)	B (B is defined as substrate protein remaining % > 80%)	A (A is defined as 0% ≤ substrate protein remaining % ≤ 80%)	B (B is defined as substrate protein remaining % > 80%)	A (A is defined as 0% ≤ substrate protein remaining % ≤ 80%)
O=C1CCN(c2ccc(CCl)cn2)C(=O)N1 [GT-07009, 1-(5-(chloromethyl)pyridin-2-yl)dihydropyrimidine-2,4(1H,3H)-dione]	B (B is defined as substrate protein remaining % > 80%)	B (B is defined as substrate protein remaining % > 80%)	A (A is defined as 0% ≤ substrate protein remaining % ≤ 80%)	B (B is defined as substrate protein remaining % > 80%)	B (B is defined as substrate protein remaining % > 80%)	B (B is defined as substrate protein remaining % > 80%)
NCc1cncc(N2CCC(=O)NC2=O)c1 [GT-07077, 1-(5-(aminomethyl)pyridin-3-yl)dihydropyrimidine-2,4(1H,3H)-dione]	B (B is defined as substrate protein remaining % > 80%)	A (A is defined as 0% ≤ substrate protein remaining % ≤ 80%)	B (B is defined as substrate protein remaining % > 80%)	B (B is defined as substrate protein remaining % > 80%)	B (B is defined as substrate protein remaining % > 80%)	B (B is defined as substrate protein remaining % > 80%)
O=C1CCN(c2cncc(CO)n2)C(=O)N1 [GT-07632, 1-(6-(hydroxymethyl)pyrazin-2-yl)dihydropyrimidine-2,4(1H,3H)-dione]	A (A is defined as 0% ≤ substrate protein remaining % ≤ 80%)	B (B is defined as substrate protein remaining % > 80%)	A (A is defined as 0% ≤ substrate protein remaining % ≤ 80%)	A (A is defined as 0% ≤ substrate protein remaining % ≤ 80%)	A (A is defined as 0% ≤ substrate protein remaining % ≤ 80%)	A (A is defined as 0% ≤ substrate protein remaining % ≤ 80%)
NCc1cc(N2CCC(=O)NC2=O)ncc1F [GT-07369, 1-(4-(aminomethyl)-5-fluoropyridin-2-yl)dihydropyrimidine-2,4(1H,3H)-dione]	B (B is defined as substrate protein remaining % > 80%)	A (A is defined as 0% ≤ substrate protein remaining % ≤ 80%)	A (A is defined as 0% ≤ substrate protein remaining % ≤ 80%)	B (B is defined as substrate protein remaining % > 80%)	B (B is defined as substrate protein remaining % > 80%)	B (B is defined as substrate protein remaining % > 80%)
O=C1CCC(Nc2cncc(CO)c2)C(=O)N1 (stereo not drawn) [GT-07448, 3-((5-(hydroxymethyl)pyridin-3-yl)amino)piperidine-2,6-dione]	A (A is defined as 0% ≤ substrate protein remaining % ≤ 80%)	A (A is defined as 0% ≤ substrate protein remaining % ≤ 80%)	A (A is defined as 0% ≤ substrate protein remaining % ≤ 80%)	A (A is defined as 0% ≤ substrate protein remaining % ≤ 80%)	A (A is defined as 0% ≤ substrate protein remaining % ≤ 80%)	A (A is defined as 0% ≤ substrate protein remaining % ≤ 80%)
O=C1CCC(c2cnc(F)c(CO)c2)C(=O)N1 (stereo not drawn) [GT-07074, 3-(6-fluoro-5-(hydroxymethyl)pyridin-3-yl)piperidine-2,6-dione]	A (A is defined as 0% ≤ substrate protein remaining % ≤ 80%)	A (A is defined as 0% ≤ substrate protein remaining % ≤ 80%)	B (B is defined as substrate protein remaining % > 80%)	B (B is defined as substrate protein remaining % > 80%)	B (B is defined as substrate protein remaining % > 80%)	A (A is defined as 0% ≤ substrate protein remaining % ≤ 80%)
NCc1ccc(N2CCC(=O)NC2=O)cn1 [GT-07048, 1-(6-(aminomethyl)pyridin-3-yl)dihydropyrimidine-2,4(1H,3H)-dione]	A (A is defined as 0% ≤ substrate protein remaining % ≤ 80%)	A (A is defined as 0% ≤ substrate protein remaining % ≤ 80%)	A (A is defined as 0% ≤ substrate protein remaining % ≤ 80%)	A (A is defined as 0% ≤ substrate protein remaining % ≤ 80%)	B (B is defined as substrate protein remaining % > 80%)	A (A is defined as 0% ≤ substrate protein remaining % ≤ 80%)
